Earlier results in patent publication US20260014182A1, “METHOD OF TREATING CANCER” (M.T.3, Inc., priority 2019, published 2026).

System: angiogenesis
Settings: in-vitro test, used with radiation

Row | SMILES | angiogenesis
1 | CCCCCCCCCCCCCCCCCCCCCC(=O)OCCCO[C@H]1O[C@H](CS(=O)(=O)[O-])[C@@H](O)[C@H](O)[C@H]1O.[Na+] [αSQAP C22:0] | inhibited
2 | CCCCCCCCCC(=O)OCCCO[C@H]1O[C@H](CS(=O)(=O)[O-])[C@@H](O)[C@H](O)[C@H]1O.[Na+] [αSQAP C10:0] | inhibited
3 | CCCCCCCCCCCCCCCCCC(=O)OCCCO[C@@H]1O[C@H](CS(=O)(=O)[O-])[C@@H](O)[C@H](O)[C@H]1O.[Na+] [βSQAP C18:0] | inhibited
4 | CCCCCCCCCCCCCC(=O)OCCCO[C@H]1O[C@H](CS(=O)(=O)[O-])[C@@H](O)[C@H](O)[C@H]1O.[Na+] [αSQAP C14:0] | inhibited
